Converted amounts (≈) assume the structure as drawn.
Key:
Test in all cases: ≥ marks a high value that may be exact or a test limit, other limits are often not marked, values filed in µg/mL are converted to µM
[1] = tested on: Agrobacterium tumefaciens GV3101
Methylobacterium sp. = tested on: Methylobacterium sp.
Xanthomonas citri = tested on: Xanthomonas citri
Bacillus subtilis 168 = tested on: Bacillus subtilis 168
[2] = tested on: Candida albicans ATCC 10231
[3] = tested on: Candida albicans ATCC 90028
[4] = tested on: Candida glabrata ATCC 2001
[5] = tested on: Candida tropicalis ATCC 13803
[6] = tested on: Escherichia coli ATCC 25726
[7] = tested on: Escherichia coli ATCC 25922
[8] = tested on: Klebsiella pneumoniae ATCC 13883
[9] = tested on: Pseudomonas aeruginosa PAO1
[10] = tested on: Staphylococcus aureus ATCC 25923
[11] = tested on: Staphylococcus aureus MU50
[12] = tested on: Staphylococcus aureus Newman
[13] = tested on: Staphylococcus aureus UAMS-1
[14] = tested on: Staphylococcus aureus USA 200
[15] = tested on: Staphylococcus aureus USA 300
[16] = tested on: Staphylococcus aureus USA 400
[17] = tested on: Staphylococcus epidermidis 1457
[18] = tested on: Escherichia coli HP101BA 7601c
[19] = tested on: Klebsiella pneumoniae PTCC 1388
[20] = tested on: Micrococcus luteus PTCC 1625
[21] = tested on: Staphylococcus aureus PTCC 1431
[22] = tested on: Acinetobacter baumannii ATCC 19606
[23] = tested on: Bordetella bronchiseptica CUN 11844-99
[24] = tested on: Pseudomonas aeruginosa ATCC 27853
[25] = tested on: Pseudomonas aeruginosa CUN 4158-02
[26] = tested on: Staphylococcus aureus ATCC 43300
[27] = tested on: Staphylococcus aureus CUN 3792-99
[28] = tested on: Stenotrophomonas maltophilia CUN 3998-00
[29] = tested on: Citrobacter freundii ATCC 8090
[30] = tested on: Escherichia coli ATCC 28922
[31] = tested on: Pseudomonas aeruginosa ATCC 9027
Acinetobacter baumannii = tested on: Acinetobacter baumannii
Aeromonas sobria 090223 = tested on: Aeromonas sobria 090223
[32] = tested on: Candida albicans ATCC 2002
Candida glabrata 0902 = tested on: Candida glabrata 0902
[33] = tested on: Enterococcus faecium 1299
Escherichia coli 1342 = tested on: Escherichia coli 1342
Klebsiella pneumoniae = tested on: Klebsiella pneumoniae
[34] = tested on: Nocardia asteroides 090312
Proteus mirabilis 090223 = tested on: Proteus mirabilis 090223
[35] = tested on: Staphylococcus aureus 090223
[36] = tested on: Staphylococcus aureus 1349
[37] = tested on: Staphylococcus aureus ATCC 2592
[38] = tested on: Stenotrophomonas maltophilia 090223

Q: `CC[C@H](C)[C@H](N)C(=O)N[C@@H](Cc1ccccc1)C(=O)NCC(=O)N[C@@H](C)C(=O)N[C@H](C(=O)N[C@@H](CC(C)C)C(=O)N1CCC[C@H]1C(=O)N[C@@H](CC(C)C)C(=O)N[C@@H](C)C(=O)N[C@@H](CC(C)C)C(=O)NCC(=O)N[C@@H](C)C(=O)N[C@@H](CC(C)C)C(=O)N[C@@H](CCCCN)C(=O)N[C@@H](CC(N)=O)C(=O)N[C@@H](CC(C)C)C(=O)N[C@H](C(=O)N[C@@H](CCCCN)C(=O)O)[C@@H](C)CC)[C@@H](C)CC` [IFGAILPLALGALKNLIK] was tested. Which MIC [1] did it give?
A: 17 µM (≈ 31.7 µg/mL)

Q: And the MIC (Methylobacterium sp.)?
A: 9 µM (≈ 16.8 µg/mL)

Q: What about the MIC (Xanthomonas citri) of the same compound?
A: 4 µM (≈ 7.46 µg/mL)

Q: How did the MIC (Bacillus subtilis 168) turn out when `CC[C@H](C)[C@H](N)C(=O)N1CCC[C@H]1C(=O)N1CCC[C@H]1C(=O)N[C@@H](Cc1ccccc1)C(=O)N[C@H](C(=O)N[C@@H](CCCCN)C(=O)N[C@@H](CCCCN)C(=O)N[C@H](C(=O)N[C@@H](CC(C)C)C(=O)N[C@H](C(=O)N[C@H](C(=O)N[C@H](C(=O)N[C@@H](Cc1ccccc1)C(N)=O)C(C)C)[C@@H](C)O)[C@@H](C)O)C(C)C)[C@@H](C)CC` [IPPFIKKVLTTVF] was run?
A: ≥ 50 µM

Q: What about the MIC [2] of the same compound?
A: 25 µM (≈ 37.5 µg/mL)

Q: What about the MIC [3] of the same compound?
A: 25 µM (≈ 37.5 µg/mL)

Q: And the MIC [4]?
A: 12.5 µM (≈ 18.8 µg/mL)

Q: And the MIC [5]?
A: 4.38 µM (≈ 6.58 µg/mL)

Q: And the MIC [6]?
A: 25 µM (≈ 37.5 µg/mL)

Q: And the MIC [7]?
A: 12.5 µM (≈ 18.8 µg/mL)

Q: What about the MIC [8] of the same compound?
A: ≥ 50 µM

Q: And the MIC [9]?
A: > 50 µM

Q: And the MIC [10]?
A: 50 µM (≈ 75.1 µg/mL)

Q: And the MIC [11]?
A: 25 µM (≈ 37.5 µg/mL)

Q: And the MIC [12]?
A: 25 µM (≈ 37.5 µg/mL)

Q: What about the MIC [13] of the same compound?
A: 25 µM (≈ 37.5 µg/mL)

Q: And the MIC [14]?
A: 25 µM (≈ 37.5 µg/mL)

Q: And the MIC [15]?
A: 25 µM (≈ 37.5 µg/mL)

Q: And the MIC [16]?
A: 25 µM (≈ 37.5 µg/mL)

Q: What about the MIC [17] of the same compound?
A: 12.5 µM (≈ 18.8 µg/mL)

Q: Which results are given for `CC(C)C[C@H](NC(=O)[C@H](C)NC(=O)[C@H](CC(N)=O)NC(=O)[C@H](CC(C)C)NC(=O)[C@@H](N)Cc1ccccc1)C(=O)N[C@@H](CCCCN)C(=O)N[C@@H](CC(N)=O)C(=O)N[C@@H](Cc1ccccc1)C(=O)N[C@@H](C)C(=O)N[C@@H](CCCCN)C(=O)N[C@H](C(=O)N[C@@H](C)C(=O)NCC(=O)N[C@@H](CCCCN)C(=O)N[C@@H](CCCN=C(N)N)C(=O)N[C@@H](CC(C)C)C(=O)N[C@@H](CCCCN)C(=O)N[C@@H](CO)C(=O)N[C@@H](CC(C)C)C(=O)N[C@@H](CC(C)C)C(=O)N[C@@H](CC(N)=O)C(=O)O)[C@@H](C)O` [FLNALKNFAKTAGKRLKSLLN]?
A: MIC [18]: 6.4 µM (≈ 15 µg/mL); MIC [19]: 7.3 µM (≈ 17.1 µg/mL); MIC [20]: 4.7 µM (≈ 11 µg/mL); MIC [21]: 5.3 µM (≈ 12.4 µg/mL)

Q: Which results are given for `NCCCC[C@H](NC(=O)CNC(=O)[C@H](CCCN=C(N)N)NC(=O)[C@H](Cc1ccc(O)cc1)NC(=O)[C@H](CCCN=C(N)N)NC(=O)[C@H](Cc1c[nH]c2ccccc12)NC(=O)[C@H](CCCN=C(N)N)NC(=O)[C@H](Cc1ccccc1)NC(=O)[C@H](CCCCN)NC(=O)[C@H](CCCCN)NC(=O)[C@H](Cc1c[nH]c2ccccc12)NC(=O)[C@H](CCCN=C(N)N)NC(=O)[C@H](CCCN=C(N)N)NC(=O)[C@H](CS)NC(=O)CN)C(=O)N[C@@H](Cc1ccccc1)C(=O)N[C@@H](Cc1c[nH]c2ccccc12)C(=O)N[C@@H](Cc1ccccc1)C(=O)N[C@@H](Cc1c[nH]c2ccccc12)C(=O)N[C@@H](CS)C(=O)NCC(N)=O` [GCRRWKKFRWRYRGKFWFWCG]?
A: MIC [22]: 22 µM (≈ 64 µg/mL); MIC [23]: 11 µM (≈ 32 µg/mL); MIC [7]: 44 µM (≈ 128 µg/mL); MIC [24]: 44 µM (≈ 128 µg/mL); MIC [25]: ≥ 44 µM; MIC [10]: 22 µM (≈ 64 µg/mL); MIC [26]: 11 µM (≈ 32 µg/mL); MIC [27]: 22 µM (≈ 64 µg/mL); MIC [28]: 22 µM (≈ 64 µg/mL)

Q: For `CC(C)C[C@H](NC(=O)[C@H](CC(C)C)NC(=O)CNC(=O)CNC(=O)CNC(=O)CNC(=O)CNC(=O)CNC(=O)CNC(=O)CNC(=O)CNC(=O)[C@H](CC(C)C)NC(=O)[C@H](CC(C)C)NC(=O)[C@@H]1CCCN1C(=O)CNC(=O)[C@H](CC(C)C)NC(=O)[C@H](CC(C)C)NC(=O)CNC(=O)CNC(=O)[C@H](CC(C)C)NC(=O)[C@H](CC(C)C)NC(=O)CN)C(=O)O` [GLLGGLLGPLLGGGGGGGGGLL], which MIC [29] is on record?
A: ≥ 75 µM

Q: What about the MIC [30] of the same compound?
A: ≥ 50 µM

Q: What about the MIC [31] of the same compound?
A: 8 µM (≈ 14.1 µg/mL)

Q: For `CC[C@H](C)[C@@H]1NC(=O)[C@H](CC(C)C)NC(=O)[C@@H](NC(=O)[C@H](Cc2ccccc2)NC(=O)[C@H](CC(C)C)NC(=O)[C@H](CO)NC(=O)[C@@H]2CCCN2C(=O)[C@H](CC(C)C)NC(=O)[C@H](CCCN=C(N)N)NC(=O)[C@H](CCCCN)NC(=O)[C@@H](NC(=O)[C@@H](NC(=O)[C@H](C)NC(=O)CNC(=O)[C@H](CC(C)C)NC(=O)[C@H](C)NC(=O)[C@@H](N)Cc2ccccc2)C(C)C)[C@@H](C)O)CSSC[C@@H](C(=O)O)NC(=O)[C@H](CCCCN)NC(=O)[C@H](CCCN=C(N)N)NC(=O)[C@H]([C@@H](C)O)NC1=O` [FALGAVTKRLPSLFCLITRKC], which MIC (Acinetobacter baumannii) is on record?
A: 5.69 µM (≈ 13.3 µg/mL)

Q: And the MIC (Aeromonas sobria 090223)?
A: 4.02 µM (≈ 9.39 µg/mL)

Q: What about the MIC [32] of the same compound?
A: 0.984 µM (≈ 2.3 µg/mL)

Q: What about the MIC (Candida glabrata 0902) of the same compound?
A: 16 µM (≈ 37.5 µg/mL)

Q: What about the MIC [33] of the same compound?
A: 2.01 µM (≈ 4.7 µg/mL)

Q: What about the MIC (Escherichia coli 1342) of the same compound?
A: 2.01 µM (≈ 4.7 µg/mL)

Q: What about the MIC [7] of the same compound?
A: 8.04 µM (≈ 18.8 µg/mL)

Q: And the MIC (Klebsiella pneumoniae)?
A: > 42.8 µM

Q: What about the MIC [34] of the same compound?
A: 8.04 µM (≈ 18.8 µg/mL)

Q: What about the MIC (Proteus mirabilis 090223) of the same compound?
A: 4.02 µM (≈ 9.39 µg/mL)

Q: And the MIC [35]?
A: 0.984 µM (≈ 2.3 µg/mL)

Q: And the MIC [36]?
A: 8.04 µM (≈ 18.8 µg/mL)

Q: What about the MIC [37] of the same compound?
A: 8.04 µM (≈ 18.8 µg/mL)

Q: What about the MIC [38] of the same compound?
A: 2.01 µM (≈ 4.7 µg/mL)

Reference: DBAASP
